From paper PMC5513037, “Examining the influence of specificity ligands and ATP-competitive ligands on the overall effectiveness of bivalent kinase inhibitors” (Proteome Science, 2017)
pIC50: −log10 of the molar value.

How the values were obtained:
Test in all cases: Dasatinib-matrix competition in K562 lysate
Conditions in all cases: residual binding 50 value; read-out: RB50 (the source's name)
[1] = biological target: T1, N-TAF1 (Homo sapiens, UniProt P21675)
T1 construct: endogenous in cells; host or cells: K562

[2] = biological target: T2, TKT (Homo sapiens, UniProt P29401)
T2 construct: endogenous in cells; host or cells: K562

[3] = biological target: T3, ATR (Homo sapiens, UniProt Q13535)
T3 construct: endogenous in cells; host or cells: K562

[4] = biological target: T4, SPEG (Homo sapiens, UniProt Q15772)
T4 construct: endogenous in cells; host or cells: K562

[5] = biological target: T5, OBSCN (Homo sapiens, UniProt Q5VST9)
T5 construct: endogenous in cells; host or cells: K562

[6] = biological target: T6, TEX14 (Homo sapiens, UniProt Q8IWB6)
T6 construct: endogenous in cells; host or cells: K562
T6 sequence (Q8IWB6 whole entry, change not shown): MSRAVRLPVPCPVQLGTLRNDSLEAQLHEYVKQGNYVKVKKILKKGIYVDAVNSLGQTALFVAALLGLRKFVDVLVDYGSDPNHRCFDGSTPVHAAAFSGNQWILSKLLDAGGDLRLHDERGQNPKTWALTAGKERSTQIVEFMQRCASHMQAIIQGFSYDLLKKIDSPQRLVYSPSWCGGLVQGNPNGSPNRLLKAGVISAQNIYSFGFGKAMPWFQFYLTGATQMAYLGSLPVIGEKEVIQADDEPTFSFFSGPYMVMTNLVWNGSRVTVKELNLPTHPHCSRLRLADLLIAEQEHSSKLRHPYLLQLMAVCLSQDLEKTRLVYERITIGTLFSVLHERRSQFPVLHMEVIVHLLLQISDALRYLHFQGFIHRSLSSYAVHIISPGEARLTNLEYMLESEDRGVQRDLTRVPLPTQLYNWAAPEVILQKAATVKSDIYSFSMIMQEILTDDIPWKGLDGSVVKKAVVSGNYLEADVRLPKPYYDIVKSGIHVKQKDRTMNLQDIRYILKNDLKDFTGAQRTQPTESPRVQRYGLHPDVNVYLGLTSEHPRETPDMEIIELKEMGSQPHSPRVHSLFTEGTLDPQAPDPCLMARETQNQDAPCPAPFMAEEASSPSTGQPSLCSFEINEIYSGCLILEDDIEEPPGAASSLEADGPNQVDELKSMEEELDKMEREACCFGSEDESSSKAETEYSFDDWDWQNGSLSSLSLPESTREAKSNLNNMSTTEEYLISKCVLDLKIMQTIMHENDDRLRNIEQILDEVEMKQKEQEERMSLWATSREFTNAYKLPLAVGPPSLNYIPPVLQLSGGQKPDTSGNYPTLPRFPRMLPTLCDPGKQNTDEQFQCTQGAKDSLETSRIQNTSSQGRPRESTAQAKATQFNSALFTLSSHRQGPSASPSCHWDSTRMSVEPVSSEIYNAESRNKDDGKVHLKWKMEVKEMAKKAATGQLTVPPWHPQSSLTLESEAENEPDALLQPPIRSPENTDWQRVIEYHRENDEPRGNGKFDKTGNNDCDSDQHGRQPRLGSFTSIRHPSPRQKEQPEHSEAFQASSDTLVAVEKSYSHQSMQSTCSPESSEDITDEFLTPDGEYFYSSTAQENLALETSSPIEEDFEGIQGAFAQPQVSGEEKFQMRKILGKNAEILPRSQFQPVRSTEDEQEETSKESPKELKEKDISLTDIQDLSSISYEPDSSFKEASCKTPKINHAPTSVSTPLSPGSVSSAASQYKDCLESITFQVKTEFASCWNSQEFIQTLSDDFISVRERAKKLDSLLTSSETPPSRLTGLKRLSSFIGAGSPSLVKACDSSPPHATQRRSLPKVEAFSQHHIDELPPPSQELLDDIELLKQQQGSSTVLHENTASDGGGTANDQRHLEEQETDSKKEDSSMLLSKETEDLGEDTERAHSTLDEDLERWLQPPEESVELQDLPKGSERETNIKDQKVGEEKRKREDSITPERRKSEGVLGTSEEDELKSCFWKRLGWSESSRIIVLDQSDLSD

[7] = biological target: T7, TTN (Homo sapiens, UniProt Q8WZ42)
T7 construct: endogenous in cells; host or cells: K562

[8] = biological target: T8, SMG1 (Homo sapiens, UniProt Q96Q15)
T8 construct: endogenous in cells; host or cells: K562
T8 sequence (Q96Q15 whole entry): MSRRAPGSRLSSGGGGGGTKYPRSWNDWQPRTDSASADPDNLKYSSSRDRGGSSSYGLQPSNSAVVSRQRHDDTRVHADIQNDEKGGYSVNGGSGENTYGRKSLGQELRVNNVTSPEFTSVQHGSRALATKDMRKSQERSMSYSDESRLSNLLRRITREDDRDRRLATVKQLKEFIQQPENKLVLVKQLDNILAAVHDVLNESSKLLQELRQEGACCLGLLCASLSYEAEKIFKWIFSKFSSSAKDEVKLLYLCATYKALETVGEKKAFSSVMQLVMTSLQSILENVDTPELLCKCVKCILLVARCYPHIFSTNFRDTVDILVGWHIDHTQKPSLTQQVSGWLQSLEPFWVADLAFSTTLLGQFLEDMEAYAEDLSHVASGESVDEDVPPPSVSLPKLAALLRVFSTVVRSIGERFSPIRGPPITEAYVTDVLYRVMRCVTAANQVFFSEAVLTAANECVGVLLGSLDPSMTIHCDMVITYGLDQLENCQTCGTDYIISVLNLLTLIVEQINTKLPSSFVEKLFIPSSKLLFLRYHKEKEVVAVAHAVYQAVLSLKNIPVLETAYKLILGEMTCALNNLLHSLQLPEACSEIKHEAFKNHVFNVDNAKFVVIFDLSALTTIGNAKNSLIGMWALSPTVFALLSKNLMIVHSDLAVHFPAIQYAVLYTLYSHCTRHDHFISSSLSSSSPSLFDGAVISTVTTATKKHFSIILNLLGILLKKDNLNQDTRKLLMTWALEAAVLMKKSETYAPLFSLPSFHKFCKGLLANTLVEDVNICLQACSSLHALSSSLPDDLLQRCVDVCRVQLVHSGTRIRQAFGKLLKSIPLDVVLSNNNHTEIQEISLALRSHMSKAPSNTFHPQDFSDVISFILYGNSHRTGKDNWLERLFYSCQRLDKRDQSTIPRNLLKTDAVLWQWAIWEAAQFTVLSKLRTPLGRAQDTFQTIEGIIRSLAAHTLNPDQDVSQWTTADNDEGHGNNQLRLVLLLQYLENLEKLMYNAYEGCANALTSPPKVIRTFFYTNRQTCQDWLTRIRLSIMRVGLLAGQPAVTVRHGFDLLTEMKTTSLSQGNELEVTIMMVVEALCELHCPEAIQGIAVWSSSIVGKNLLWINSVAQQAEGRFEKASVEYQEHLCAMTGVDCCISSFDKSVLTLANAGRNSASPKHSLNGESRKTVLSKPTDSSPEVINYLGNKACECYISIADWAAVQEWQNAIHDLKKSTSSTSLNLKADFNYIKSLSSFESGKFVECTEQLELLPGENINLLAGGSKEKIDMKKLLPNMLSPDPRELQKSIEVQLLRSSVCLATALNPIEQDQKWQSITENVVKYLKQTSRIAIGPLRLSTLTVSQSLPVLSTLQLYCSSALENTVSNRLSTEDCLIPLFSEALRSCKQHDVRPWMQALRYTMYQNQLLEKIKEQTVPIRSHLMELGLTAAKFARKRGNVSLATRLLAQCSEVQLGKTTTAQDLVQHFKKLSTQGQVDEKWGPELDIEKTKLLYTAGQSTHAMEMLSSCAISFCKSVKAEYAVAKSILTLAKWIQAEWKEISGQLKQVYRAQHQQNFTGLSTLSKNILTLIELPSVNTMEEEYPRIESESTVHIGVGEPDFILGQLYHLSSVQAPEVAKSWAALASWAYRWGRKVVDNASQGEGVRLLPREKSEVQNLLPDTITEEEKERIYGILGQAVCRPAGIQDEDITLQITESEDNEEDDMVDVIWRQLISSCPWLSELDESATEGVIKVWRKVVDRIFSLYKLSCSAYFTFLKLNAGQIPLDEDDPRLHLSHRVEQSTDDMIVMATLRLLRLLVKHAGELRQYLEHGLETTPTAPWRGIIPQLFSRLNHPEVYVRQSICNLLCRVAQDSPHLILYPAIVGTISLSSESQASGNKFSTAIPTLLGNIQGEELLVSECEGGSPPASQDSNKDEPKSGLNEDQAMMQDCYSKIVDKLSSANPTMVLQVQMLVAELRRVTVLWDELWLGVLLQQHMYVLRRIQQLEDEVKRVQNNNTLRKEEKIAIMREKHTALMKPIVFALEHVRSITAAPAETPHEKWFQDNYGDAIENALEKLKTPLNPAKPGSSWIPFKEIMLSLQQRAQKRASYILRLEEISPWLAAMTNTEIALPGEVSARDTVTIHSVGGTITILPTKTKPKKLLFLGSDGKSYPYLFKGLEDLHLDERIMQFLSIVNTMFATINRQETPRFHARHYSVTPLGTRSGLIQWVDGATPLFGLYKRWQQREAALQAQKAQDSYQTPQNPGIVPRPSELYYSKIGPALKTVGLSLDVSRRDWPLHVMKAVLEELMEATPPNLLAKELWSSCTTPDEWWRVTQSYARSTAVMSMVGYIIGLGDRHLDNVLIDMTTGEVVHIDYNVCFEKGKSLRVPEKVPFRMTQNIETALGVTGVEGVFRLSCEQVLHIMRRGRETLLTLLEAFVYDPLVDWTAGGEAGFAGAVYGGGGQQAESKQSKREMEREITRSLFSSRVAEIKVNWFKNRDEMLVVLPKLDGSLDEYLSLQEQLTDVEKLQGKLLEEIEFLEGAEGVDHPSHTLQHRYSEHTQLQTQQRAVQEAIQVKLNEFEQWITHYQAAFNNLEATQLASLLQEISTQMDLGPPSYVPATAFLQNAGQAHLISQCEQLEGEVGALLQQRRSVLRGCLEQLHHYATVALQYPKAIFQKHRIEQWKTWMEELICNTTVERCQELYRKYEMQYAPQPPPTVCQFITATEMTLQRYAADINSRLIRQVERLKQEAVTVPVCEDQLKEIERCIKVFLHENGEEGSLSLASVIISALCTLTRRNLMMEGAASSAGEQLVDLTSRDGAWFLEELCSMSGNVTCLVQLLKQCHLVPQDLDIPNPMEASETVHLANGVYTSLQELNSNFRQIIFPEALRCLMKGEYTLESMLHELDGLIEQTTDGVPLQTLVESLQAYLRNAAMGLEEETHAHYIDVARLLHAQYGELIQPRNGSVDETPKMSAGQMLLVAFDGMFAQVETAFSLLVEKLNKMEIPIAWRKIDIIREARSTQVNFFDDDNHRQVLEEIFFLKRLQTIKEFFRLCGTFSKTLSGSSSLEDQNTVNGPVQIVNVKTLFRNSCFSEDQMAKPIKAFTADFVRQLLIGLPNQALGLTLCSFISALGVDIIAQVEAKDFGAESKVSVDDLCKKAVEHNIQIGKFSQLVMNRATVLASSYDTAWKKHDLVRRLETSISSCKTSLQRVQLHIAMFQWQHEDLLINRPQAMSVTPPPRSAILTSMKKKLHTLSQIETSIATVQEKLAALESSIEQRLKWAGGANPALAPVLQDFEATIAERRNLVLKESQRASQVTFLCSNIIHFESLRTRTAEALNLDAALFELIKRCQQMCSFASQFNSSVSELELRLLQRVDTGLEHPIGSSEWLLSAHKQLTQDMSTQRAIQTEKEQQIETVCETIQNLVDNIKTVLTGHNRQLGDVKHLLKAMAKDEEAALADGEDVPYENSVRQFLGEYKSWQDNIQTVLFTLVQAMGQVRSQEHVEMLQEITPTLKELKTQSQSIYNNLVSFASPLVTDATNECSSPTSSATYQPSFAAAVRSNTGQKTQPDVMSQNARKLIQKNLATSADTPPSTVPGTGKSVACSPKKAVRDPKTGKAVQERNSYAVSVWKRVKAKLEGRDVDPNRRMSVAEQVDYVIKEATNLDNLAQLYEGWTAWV

[9] = biological target: T9, PIK3R4 (Homo sapiens, UniProt Q99570)
T9 construct: endogenous in cells; host or cells: K562

[10] = biological target: ATM (Homo sapiens, UniProt Q13315); design: endogenous in cells; host or cells: K562

pIC50 [1]: 5.01
pIC50 [2]: < 5.00
pIC50 [3]: < 5.00
pIC50 [4]: < 5.00
pIC50 [5]: < 5.00
pIC50 [6]: < 5.00
pIC50 [7]: < 5.00
pIC50 [8]: < 5.00
pIC50 [9]: < 5.00
pIC50 [10]: < 5.00
Structure (SMILES): Cc1nc(Nc2ncc(C(=O)Nc3c(C)cccc3Cl)s2)cc(N2CCN(CCO)CC2)n1 [Dasatinib]
